Measurements taken from patent publication US20130303482A1, “Cylodextrin Complexation Methods for Formulating Peptide Proteasome Inhibitors” (ONYX THERAPEUTICS, INC., priority 2012, published 2013).
≈ marks a conversion by molar mass, not a printed value.

Experiments:
[1] = Slurry complexation / solubilization of CFZ-API in SBECD with citric acid (Example 1); type: physicochemical
Procedure: In a 525 L stainless steel jacketed cooled tank controlled to 2° C.-8° C., a suspension of 2.0 kg carfilzomib-API (CFZ-API), 246 kg water for injection (WFI), and 100 kg sulfobutylether beta-cyclodextrin (SBECD) was prepared. Specifically, in the 525 L stainless steel jacketed cooled tank controlled to 2° C.-8° C., 100 kg SBECD was dissolved in 246 kg WFI. The Carfilzomib suspension was then prepared using 2.0 kg of CFZ-API. Mixing was performed using an impeller mixer to maintain suspension of the CFZ-API solids and dissolve the SBECD. In the same vessel, a probe style rotor-stator high shear mixer (homogenizer) was used as well as the low shear impeller. The high shear mixer was operated for approximately 1 hour yielding an even suspension and reduction of particle size for any larger primary particles or agglomerated API. After a suspension was achieved, 1.96 kg of citric acid was added as a 16% aqueous solution. The pH of the solution was then lowered inducing partial solubilization of the CFZ-API followed by and complexation due to the presence of SBECD. Mixing was continued for a further 24 hours with both the impeller and the high shear mixer and a dissolved concentration of CFZ-API of greater than 5.1 mg/mL was achieved. The suspension containing greater than 5.1 mg/mL of dissolved complexed CFZ-API was filtered with a 0.45 micrometer clarifying filter, then accurately diluted to a dissolved concentration of 5.0 mg/mL and pH adjusted with 1 N sodium hydroxide solution to achieve pH 3.5. The solution was sterile filtered, with two sequential 0.22 micrometer sterilizing filters, then filled into vials 12.36 mL each, containing 61.8 mg per vial of CFZ-API. The vials were partially stoppered and loaded into a lyophilizer and freeze dried over 103 hours using a freezing temperature of −45° C., primary drying temperature of −15° C., and secondary drying of +30° C. The lyophilized vials were fully stoppered, and capped, then stored at the product stability temperature of 2° C.-8° C. for up to two years before use. […]

[2] = Solubility of carfilzomib as a function of SBECD concentration, pH 1.5 and 3.5, 5° C. and 25° C. (Example 4); type: physicochemical; conditions: SBECD solutions, citric acid 30 mM, pH 1.5 and 3.5, 5° C. vs 25° C., 24 hours
Procedure: The experiments at acidic conditions below the target pH values and titrated to pH 1.5 or 3.5 using aqueous sodium hydroside solution. Measurements of solubilized concentration were those from samples analyzed after 24 hours of time to equilibrate.

[3] = CDP (chlorohydrin degradation product) formation in lyophilized complexed carfilzomib vs pH, water and sodium chloride content, HPLC (Example 2); type: physicochemical
Procedure: A multivariate statistical design of experiments was conducted to assess factors controlling the level of chlorohydrin degradation product as a function of processing parameters and storage time over six months. The complexation was performed in the proportion and parameters given in Example 1, with the following modifications: (i) the complexation process was performed at 2 L batch size; (ii) the final pH of solution before vial filling was varied for purposes of the experiment from 3.0, to 4.0; (iii) sodium chloride was spiked into SBECD in some experiments to create a high sodium chloride condition; (iv) water content of the lyophilized final product in stoppered vials was produced at high and low sodium chloride conditions via early termination and stoppering of vials to create a higher residual water content condition.
The solution of complexed carfilzomib for injection bulk solution pre-lyophilization included aqueous 5 mg/mL carfilzomib, 250 mg/mL Captisol® (SBECD) and 4.86 mg/mL citric acid, pH adjusted with aqueous sodium hydroxide. Compounding of the bulk solutions for lyophilization followed the procedure detailed in Example 1 with the following manipulations to create solutions with different specific attributes: • 1. pH was adjusted to 3.0 and 4.0 • 2. Sodium chloride was spiked into the Captisol® to create a “High Chloride” condition Captisol® manufactured by Cydex, a subsidiary of Ligand, has a standard product analysis range for sodium chloride from 0.05% to 0.2% (w/v). […] 400 g of this Captisol® was required per batch for the process to be performed at 2 L scale batches of complexation processing (in same proportions and general parameters per Example 1). To create the “high chloride” condition, 0.6 g of NaCl was added to 399.4 g of Captisol® which thus mimicked what a batch containing 0.2% chloride Captisol® would be comprised of.
In order to generate two (2) moisture content conditions in the final lyophilized vials, two (2) sets of 61.8 mg/vial (of CFZ-API) samples were lyophilized. The first cycle generated the “dry” sample set of vials containing approximately 0.6% residual water per Example 1 lyophilization parameters. For the second sample set, lyophilization was terminated and vials stoppered earlier in the secondary drying phase to generate the “wet” condition vials, with residual moisture approximately 2.4% water per vial initially.
The bulk solution of complexed carfilzomib was analyzed during manufacture by High Performance Liquid Chromatography (HPLC) to accurately quantify the concentration of dissolved and complexed carfilzomib drug substance. Subsequently, additional water was added to accurately dilute the bulk complexed solution. After this dilution step, HPLC was used again to ensure a target concentration of 5.0 mg/mL was achieved. Samples of the three (3) final bulk solutions were analyzed for potency and purity confirmation testing by HPLC. […] Karl Fischer Coulometry method was used for the water content determination in the lyophilized drug product.

With `CC(C)C[C@H](NC(=O)[C@H](CCc1ccccc1)NC(=O)CN1CCOCC1)C(=O)N[C@@H](Cc1ccccc1)C(=O)N[C@@H](CC(C)C)C(=O)[C@@]1(C)CO1` [carfilzomib] as the molecule, how does the “extent of solubilization vs API particle size (FIG. 2)” value ([1]; 24 hour complexation, mean API particle size 21.1 vs 7.5 micrometers) read?
The value was “equivalent extent of solubilization”.

What about the “dissolved concentration of CFZ-API” value ([1]; SBECD/WFI/citric acid slurry, 2° C.-8° C., 24 hours mixing) of the same molecule?
Its value is “greater than 5.1 mg/mL”.

And the “effect of higher SBECD concentration on solubility (FIG. 3)” value ([1]; process of Example 1)?
The value was “increased the solubility”.

And the “difference in solubility between low and high temperature (FIG. 6)” value [2]?
Its value is “No significant differences in solubility”.

What about the “% Area of CDP after 6 months (HPLC data)” value ([3]; pH 3.00, water 0.7%, sodium chloride 0.05%, 5° C.) of the same molecule?
Its value is 0.00 % Area.

What about the “% Area of CDP after 6 months (HPLC data)” value ([3]; pH 3.00, water 0.7%, sodium chloride 0.05%, 25° C.) of the same molecule?
The value was 0.14 % Area.

What about the “% Area of CDP after 6 months (HPLC data)” value ([3]; pH 3.00, water 0.7%, sodium chloride 0.2%, 5° C.) of the same molecule?
The value was 0.13 % Area.

What about the “% Area of CDP after 6 months (HPLC data)” value ([3]; pH 3.00, water 0.7%, sodium chloride 0.2%, 25° C.) of the same molecule?
Its value is 0.70 % Area.

What about the “% Area of CDP after 6 months (HPLC data)” value ([3]; pH 3.00, water 2%, sodium chloride 0.05%, 5° C.) of the same molecule?
Its value is 0.02 % Area.

And the “% Area of CDP after 6 months (HPLC data)” value ([3]; pH 3.00, water 2%, sodium chloride 0.05%, 25° C.)?
The value was 0.55 % Area.

And the “% Area of CDP after 6 months (HPLC data)” value ([3]; pH 3.00, water 2%, sodium chloride 0.2%, 5° C.)?
The value was 0.28 % Area.

And the “% Area of CDP after 6 months (HPLC data)” value ([3]; pH 3.00, water 2%, sodium chloride 0.2%, 25° C.)?
Its value is 2.57 % Area.

And the “% Area of CDP after 6 months (HPLC data)” value ([3]; pH 4.00, water 0.7%, sodium chloride 0.05%, 5° C.)?
Its value is 0.00 % Area.

And the “% Area of CDP after 6 months (HPLC data)” value ([3]; pH 4.00, water 0.7%, sodium chloride 0.05%, 25° C.)?
Its value is 0.09 % Area.

What about the “% Area of CDP after 6 months (HPLC data)” value ([3]; pH 4.00, water 0.7%, sodium chloride 0.2%, 5° C.) of the same molecule?
The value was 0.08 % Area.

And the “% Area of CDP after 6 months (HPLC data)” value ([3]; pH 4.00, water 0.7%, sodium chloride 0.2%, 25° C.)?
The value was 0.36 % Area.

And the “% Area of CDP after 6 months (HPLC data)” value ([3]; pH 4.00, water 2%, sodium chloride 0.05%, 5° C.)?
Its value is 0.02 % Area.

And the “% Area of CDP after 6 months (HPLC data)” value ([3]; pH 4.00, water 2%, sodium chloride 0.05%, 25° C.)?
The value was 0.35 % Area.

What about the “% Area of CDP after 6 months (HPLC data)” value ([3]; pH 4.00, water 2%, sodium chloride 0.2%, 5° C.) of the same molecule?
Its value is 0.18 % Area.

And the “% Area of CDP after 6 months (HPLC data)” value ([3]; pH 4.00, water 2%, sodium chloride 0.2%, 25° C.)?
The value was 1.71 % Area.

And the solubility (physchem; pH 1, simulated gastric fluid)?
The solubility was 1800 µg/mL (≈ 2500 µM).

And the solubility (physchem; pH 3, aqueous buffer)?
The solubility was 20 µg/mL (≈ 27.8 µM).

And the solubility (physchem; pH 5, aqueous buffer)?
Its solubility is 2 µg/mL (≈ 2.78 µM).

And the solubility (physchem; water)?
The solubility was 2 µg/mL (≈ 2.78 µM).
